What was measured:
Format in all cases: binding
[1] = tested on: p38 and ASK1; assay: DSF selectivity for TAOK2 over small panel of other MAPK cascade members; details: versus p38 and ASK1
Protocol: (§1) Differential scanning fluorimetry binding assays of selected compounds against TAOK2 were conducted to measure strength of compound binding. A solution of 5 μM TAOK2, 50 mM MgCl2, 50 mM HEPES pH 7.5, and 2.5x SyproOrange(Life Technologies) was made. Compound was added to a final concentration of 1 μM. 25 μl of the reaction solution was added to the wells of a Biorad Multiplate 96 wellclear PCR plate. The plate was covered with a Biorad Microseal ‘B’ seal. Plates were read in a Biorad CFX96 Real-Time PCR system. The temperature was increased from 4° C. to 80° C., with fluorescence measurements being taken every 0.5° C. in the 6-FAM Fluorescein channel. The fluorescence response to heat curve was fit to a binding isotherm in order to determine the inflection point, which was taken as the melt temperature (Tm).
(§2) The difference between the TAOK2 ΔTm and that of p38 and ASK1 was determined. […] The majority of the other compounds were also preferentially inhibitory toward TAOK2. Of the 13 compounds, SW034538, SW172006 and SW083688 were cross-verified for selectivity by performing a specificity screen against 45 kinases commercially at Eurofins Cerep, Inc. (FIG. 3).

[2] = biological target: p38 (Homo sapiens, UniProt Q16539); assay: DSF against p38 (selectivity panel of MAPK cascade members); details: difference between the TAOK2 ΔTm and that of p38, DSF
Protocol: as §1, §2

[3] = biological target: T1, ASK1 (Homo sapiens, UniProt Q99683); assay: DSF against ASK1 (selectivity panel of MAPK cascade members); details: difference between the TAOK2 ΔTm and that of ASK1, DSF
T1 sequence (Q99683 1-1374): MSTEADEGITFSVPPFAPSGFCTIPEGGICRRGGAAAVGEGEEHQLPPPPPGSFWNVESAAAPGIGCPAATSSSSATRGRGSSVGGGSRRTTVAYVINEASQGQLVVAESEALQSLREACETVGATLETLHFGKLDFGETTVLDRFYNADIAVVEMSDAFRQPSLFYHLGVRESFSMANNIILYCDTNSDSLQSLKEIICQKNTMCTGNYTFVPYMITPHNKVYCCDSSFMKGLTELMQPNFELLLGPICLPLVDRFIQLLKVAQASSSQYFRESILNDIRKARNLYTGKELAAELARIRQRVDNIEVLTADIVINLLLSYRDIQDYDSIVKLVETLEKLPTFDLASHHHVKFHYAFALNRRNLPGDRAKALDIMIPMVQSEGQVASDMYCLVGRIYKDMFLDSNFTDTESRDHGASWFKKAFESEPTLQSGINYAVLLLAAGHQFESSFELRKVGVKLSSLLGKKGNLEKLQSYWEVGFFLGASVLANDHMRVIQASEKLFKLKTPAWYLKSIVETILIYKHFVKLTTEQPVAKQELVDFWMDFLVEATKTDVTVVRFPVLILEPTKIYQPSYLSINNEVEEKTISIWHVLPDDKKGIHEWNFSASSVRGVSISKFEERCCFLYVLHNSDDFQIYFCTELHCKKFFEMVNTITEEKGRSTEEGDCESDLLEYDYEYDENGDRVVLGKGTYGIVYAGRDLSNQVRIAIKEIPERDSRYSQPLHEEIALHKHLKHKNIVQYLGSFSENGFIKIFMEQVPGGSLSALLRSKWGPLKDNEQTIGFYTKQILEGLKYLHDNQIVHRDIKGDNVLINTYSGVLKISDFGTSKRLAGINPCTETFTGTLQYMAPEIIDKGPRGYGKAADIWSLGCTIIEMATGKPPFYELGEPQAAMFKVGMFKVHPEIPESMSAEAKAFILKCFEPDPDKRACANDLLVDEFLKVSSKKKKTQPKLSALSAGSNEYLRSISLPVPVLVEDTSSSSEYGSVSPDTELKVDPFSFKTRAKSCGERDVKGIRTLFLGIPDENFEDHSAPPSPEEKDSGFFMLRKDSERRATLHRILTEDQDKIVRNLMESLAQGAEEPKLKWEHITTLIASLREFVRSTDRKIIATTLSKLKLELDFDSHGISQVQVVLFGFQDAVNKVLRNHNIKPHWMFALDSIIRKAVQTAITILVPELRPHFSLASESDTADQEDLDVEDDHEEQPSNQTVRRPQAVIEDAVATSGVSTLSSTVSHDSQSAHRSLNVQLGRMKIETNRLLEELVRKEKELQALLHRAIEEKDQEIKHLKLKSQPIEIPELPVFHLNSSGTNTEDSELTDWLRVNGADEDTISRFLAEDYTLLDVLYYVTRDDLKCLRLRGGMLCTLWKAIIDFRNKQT
Protocol: as §1, §2

p38, sequence (Q16539 whole entry): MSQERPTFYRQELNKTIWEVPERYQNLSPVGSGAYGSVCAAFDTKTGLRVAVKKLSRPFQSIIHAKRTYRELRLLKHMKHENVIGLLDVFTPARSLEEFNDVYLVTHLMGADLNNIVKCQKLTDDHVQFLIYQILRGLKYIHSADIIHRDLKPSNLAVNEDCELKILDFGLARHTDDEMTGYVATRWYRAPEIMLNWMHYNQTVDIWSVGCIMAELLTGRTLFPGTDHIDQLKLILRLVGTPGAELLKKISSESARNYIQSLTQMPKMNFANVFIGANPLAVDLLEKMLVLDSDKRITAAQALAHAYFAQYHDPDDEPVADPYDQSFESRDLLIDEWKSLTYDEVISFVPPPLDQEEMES

ΔΔTm (p38) [2] | ΔΔTm (ASK1) [3] | Structure (SMILES) | selectivity for TAOK2 according to DSF [1]
2.0 °C | 2.1 °C | CCOCCCn1c(=S)[nH]c2cc(C(=O)NCC3COc4ccccc4O3)ccc2c1=O (stereo not drawn) [SW083688] | selective
2.8 °C | 2.7 °C | CCC(=O)Nc1nc(C)c(-c2csc(Nc3cc(OC)ccc3OC)n2)s1 [SW034538] | selective
2.0 °C | 1.2 °C | CS(=O)(=O)c1ccc2nc(NC(=O)CCCOc3ccc(Cl)cc3)sc2c1 [SW172006] | selective
